Reference: PMC6283615, “Anilinoquinoline based inhibitors of trypanosomatid proliferation” (PLoS Neglected Tropical Diseases, 2018)
Converted amounts (≈) assume the structure as drawn.

Columns and labels:
[1] = Rat hepatocyte intrinsic clearance; format: in vitro ADME
L. major amastigote = experiment: L. major intracellular amastigote luciferase assay in RAW 264.7 macrophages; format: cell-based, Leishmania major; conditions: intracellular amastigotes in RAW 264.7 macrophages, 96 h
Procedure: Amastigote assays were performed using pLEXSY-hyg2-luciferase L. major transfected promastigotes and the murine RAW 264.7 macrophage cell line (ATCC TIB-71, Manassas, VA). Briefly, luciferase-expressing promastigotes of each Leishmania species were generated by adding a luciferase encoding region to the pLEXSY-hyg2 vector (Jena Biosciences, Germany) as described. One μg of the linearized pLEXSY-hyg2-luciferase vector were electroporated (480 V, 13 Ω, and 500 μF) into 4×10^7 Leishmania promastigotes. Selection for stable promastigote transfectants was carried out using hygromycin B (100 μg/mL). RAW 264.7 macrophages were maintained in growth medium (Dulbecco’s Modified Eagle’s Medium supplemented with heat-inactivated 10% FBS (Life Technologies)). Cells were harvested and resuspended in growth medium at 2.0×10^5 cells/mL, and 1×10^4 cells/well were dispensed (final volume 50 μL) in each well of a 384 well tissue-culture treated white plate using a EVO Freedom liquid handling system (Tecan, Durham, NC). Plates were incubated at 37°C in 5% CO2 for 24 h after which the culture medium was removed from each well using the EVO Freedom liquid handler. Metacyclic phase pLEXSY-hyg2-luciferase-Leishmania promastigotes (MOI = 1:10 L. major) were added to each assay plate well and allowed to infect the RAW 264.7 macrophages. After an overnight incubation, the growth medium was aspirated and each well was washed three times with 40 μL of fresh growth medium to remove non-internalized promastigotes. After the third wash, 69.2 μL of growth medium was added to each well. Compound dilutions (final concentration ranges 0.5–10,000 ng/mL) were generated and dispensed using the liquid handling system. Compound treated plates were incubated at 37°C in 5% CO2 for 96 h. After incubation, 7.5 μL of a luciferin solution (Caliper Life Science, Waltham, MA) diluted to 150 μg/mL was added to each well, and the plates were incubated for 30 min at 37°C in the dark. Data were captured using an Infinite M200 plate reader (Tecan). EC50s were generated for each concentration response test using GraphPad Prism software 6.0.

LogD7.4 = format: physicochemical; conditions: pH 7.4
[2] = Human liver microsome intrinsic clearance; format: in vitro ADME
NIH/3T3 cells = experiment: Drug toxicity to 3T3 cells (Alamar Blue, 96 h); format: cell-based
Procedure: In a 96-well plate, 5×10^4 NIH/3T3 (ATCC CRL-1658) cells (purchased from ATCC) in DMEM without phenol red supplemented with 2% FBS were added to each well. Cells were incubated for 2 h to allow for attachment. Compounds were added in triplicates at 200 μM and in serial dilutions 1:2 and incubated at 37°C, 5% CO2 for 96 h. […] Following incubation, 10 μL of Alamar Blue (ThermoFisher) were added to each well and cells incubated at 37°C, 5% CO2 for 4 h. Absorbance was read at 590–595 nm.

[3] = test system: T. cruzi amastigote (Tulahuen strain expressing β-galactosidase); experiment: Intracellular T. cruzi assay in 3T3 cells (beta-galactosidase, 96 h); format: cell-based, Trypanosoma cruzi; conditions: intracellular in 3T3 cells, 96 h; read-out: T. cruzi amastigote EC50
Procedure: In a 96-well plate, 5×10^4 3T3 cells in DMEM without phenol red supplemented with 2% FBS were added to each well. Cells were incubated for 2 h to allow for attachment. Compounds were added in triplicates at 50 μM and in serial dilutions 1:2. To each well, 5×10^4 T. cruzi trypomastigotes (Tulahuen strain expressing β-galactosidase) were added and incubated at 37°C, 5% CO2 for 96 h. Following incubation, 50 μL of 500 μM chlorophenol Red-β-D-galactopyranoside (CPRG) in phosphate-buffered saline with 0.5% NP40 was added to each well and incubated at 37°C, 5% CO2 for 4 h. Absorbance was read at 590–595 nm.

Aqueous solubility = format: physicochemical
HepG2 cells = experiment: Drug toxicity to HepG2 cells (MTT, 48 h); format: cell-based, human; conditions: tested concentration ranges based on compound solubility
Procedure: HepG2 cells were cultured in complete Minimal Essential Medium prepared by supplementing MEM with 0.19% sodium bicarbonate, 10% heat inactivated FBS, 2 mM L-glutamine, 0.1 mM MEM non-essential amino, 0.009 mg/mL insulin, 1.76 mg/mL bovine serum albumin, 20 units/mL penicillin–streptomycin, and 0.05 mg/mL gentamycin. HepG2 cells cultured in complete MEM were first washed with 1× Hank’s Balanced Salt Solution (Invitrogen #14175095), trypsinized using a 0.25% trypsin/EDTA solution, assessed for viability using trypan blue, and resuspended at 250,000 cells/mL. Using a Tecan EVO Freedom robot, 38.3 μL of cell suspension were added to each well of clear, cell culture-treated 384-well microtiter plates for a final concentration of 9570 liver cells per well, and plated cells were incubated overnight in 5% CO2 at 37°C. Drug plates were prepared with the Tecan EVO Freedom using sterile 96 well plates containing twelve duplicate 1.6-fold serial dilutions of each test compound suspended in DMSO. 4.25 μL of diluted test compound was then added to the 38.3 μL of media in each well providing a […] final dilution of compound. Compounds were tested from a range of 57 ng/mL to 10,000 ng/mL for all assays. Mefloquine was used as a plate control for all assays with a concentration ranging from 113 ng/mL to 20,000 ng/mL. After a 48 h incubation period, 8 μL of a 1.5 mg/mL solution of MTT diluted in complete MEM media was added to each well. All plates were subsequently incubated in the dark for 1 h at room temperature. After incubation, the media and drugs in each well was removed by shaking the plate over sink, and the plates were left to dry in a fume hood for 15 mins. Next, 30 μL of isopropanol acidified by addition of HCl at a final concentration of 0.36% was added to dissolve the formazan dye crystals created by reduction of MTT. Plates are put on a 3-D rotator for 15–30 mins. Absorbance was determined in all wells using a Tecan iControl 1.6 Infinite plate reader.

[4] = Human plasma protein binding; format: in vitro ADME
[5] = test system: T. b. brucei (strain 427); experiment: T. b. brucei proliferation assay (PrestoBlue, 48 h); format: cell-based, Trypanosoma brucei brucei
Procedure: The assay was performed following a previously reported procedure. Briefly, in a 96-well plate, compounds were added in triplicates at 50 μM and in serial dilutions 1:2 in HMI-9 medium. To each well, 100 μL of 2.5×10^3 T. b. brucei (strain 427, received as a gift from Dr. C. C. Wang at UCSF) in HMI-9 medium was were added and incubated at 37°C, 5% CO2 for 48 h. Following incubation, 20 μL of PrestoBlue were added to each well and incubated for additional 4 h. Fluorescence was read at 530 nm excitation and 590 nm emission.

CN1CCN(c2ncc(-c3ccc4c(Nc5ccc6[nH]nnc6c5)ccnc4c3)cn2)CC1 [NEU-1957]
Rat Hepatocyte CLint [1]: 51 μL/min/10^6 cells | EC50 (L. major amastigote): 21 µM | LogD7.4 (LogD7.4): 3.3 | Human Liver Microsome CLint [2]: 120 µL/min/mg | 3T3 TC50 (NIH/3T3 cells): > 100 µM | EC50 [3]: > 50 µM | solubility (Aqueous solubility): < 1 µM | HepG2 TC50 (HepG2 cells): 14 µM | Human PPB [4]: 91% | EC50 [5]: 21 µM

Cc1ccc(-c2ccc3c(Nc4cnccn4)ccnc3c2)o1 [NEU-2133]
Rat Hepatocyte CLint [1]: 290 μL/min/10^6 cells | EC50 (L. major amastigote): 33 µM | LogD7.4 (LogD7.4): 4 | Human Liver Microsome CLint [2]: 190 µL/min/mg | 3T3 TC50 (NIH/3T3 cells): > 50 µM | EC50 [3]: 0.79 µM | solubility (Aqueous solubility): 4 µM (≈ 1.21 µg/mL) | HepG2 TC50 (HepG2 cells): 50 µM | Human PPB [4]: 99% | EC50 [5]: 5.3 µM

COc1ccc(Nc2ccnc3cc(-c4ccc(C)o4)ccc23)cc1Cl [NEU-2134]
Rat Hepatocyte CLint [1]: 193 μL/min/10^6 cells | EC50 (L. major amastigote): 27 µM | LogD7.4 (LogD7.4): 4.8 | Human Liver Microsome CLint [2]: > 300 µL/min/mg | 3T3 TC50 (NIH/3T3 cells): > 100 µM | EC50 [3]: 1.2 µM | solubility (Aqueous solubility): 0.1 µM (≈ 0.0365 µg/mL) | HepG2 TC50 (HepG2 cells): 42 µM | Human PPB [4]: > 99% | EC50 [5]: > 20 µM

c1cnc(Nc2ccnc3cc(Nc4nccs4)ccc23)cn1 [NEU-2141]
Rat Hepatocyte CLint [1]: 270 μL/min/10^6 cells | EC50 (L. major amastigote): 24 µM | LogD7.4 (LogD7.4): 3.3 | Human Liver Microsome CLint [2]: 68 µL/min/mg | 3T3 TC50 (NIH/3T3 cells): 24 µM | EC50 [3]: 22 µM | solubility (Aqueous solubility): 4 µM (≈ 1.28 µg/mL) | HepG2 TC50 (HepG2 cells): 7.1 µM | Human PPB [4]: 91% | EC50 [5]: 4.4 µM

Cc1nn(C)c(C)c1Nc1ccc2c(Nc3cnccn3)ccnc2c1 [NEU-2142]
Rat Hepatocyte CLint [1]: 32 μL/min/10^6 cells | EC50 (L. major amastigote): 26 µM | LogD7.4 (LogD7.4): 2 | Human Liver Microsome CLint [2]: 13 µL/min/mg | 3T3 TC50 (NIH/3T3 cells): > 100 µM | EC50 [3]: > 50 µM | solubility (Aqueous solubility): 570 µM (≈ 197 µg/mL) | HepG2 TC50 (HepG2 cells): 39 µM | Human PPB [4]: 59% | EC50 [5]: 23 µM

Cn1cc(Nc2ccc3c(Nc4cnccn4)ccnc3c2)cn1 [NEU-2143]
Rat Hepatocyte CLint [1]: 66 μL/min/10^6 cells | EC50 (L. major amastigote): 28 µM | LogD7.4 (LogD7.4): 1.9 | Human Liver Microsome CLint [2]: 10 µL/min/mg | 3T3 TC50 (NIH/3T3 cells): > 50 µM | EC50 [3]: > 50 µM | HepG2 TC50 (HepG2 cells): 29 µM | Human PPB [4]: 63% | EC50 [5]: 14 µM

Cn1nccc1Nc1ccc2c(Nc3cnccn3)ccnc2c1 [NEU-2144]
Rat Hepatocyte CLint [1]: 16 μL/min/10^6 cells | EC50 (L. major amastigote): 28 µM | LogD7.4 (LogD7.4): 2.4 | Human Liver Microsome CLint [2]: 10 µL/min/mg | 3T3 TC50 (NIH/3T3 cells): > 50 µM | EC50 [3]: > 50 µM | solubility (Aqueous solubility): 100 µM (≈ 31.7 µg/mL) | HepG2 TC50 (HepG2 cells): 35 µM | Human PPB [4]: 69% | EC50 [5]: 14 µM

c1cnc(Nc2ccnc3cc(Nc4nccnn4)ccc23)cn1 [NEU-2145]
Rat Hepatocyte CLint [1]: > 300 μL/min/10^6 cells | EC50 (L. major amastigote): 28 µM | LogD7.4 (LogD7.4): 2.1 | Human Liver Microsome CLint [2]: 42 µL/min/mg | 3T3 TC50 (NIH/3T3 cells): > 50 µM | EC50 [3]: > 50 µM | solubility (Aqueous solubility): 3 µM (≈ 0.949 µg/mL) | HepG2 TC50 (HepG2 cells): 11 µM | Human PPB [4]: 75% | EC50 [5]: 4.7 µM

Cc1n[nH]c(C)c1Nc1ccc2c(Nc3cnccn3)ccnc2c1 [NEU-2146]
Rat Hepatocyte CLint [1]: 120 μL/min/10^6 cells | EC50 (L. major amastigote): 27 µM | LogD7.4 (LogD7.4): 1.8 | Human Liver Microsome CLint [2]: 8 µL/min/mg | 3T3 TC50 (NIH/3T3 cells): > 100 µM | EC50 [3]: > 50 µM | HepG2 TC50 (HepG2 cells): 40 µM | Human PPB [4]: 68% | EC50 [5]: 17 µM

Cn1ccnc1Nc1ccc2c(Nc3cnccn3)ccnc2c1 [NEU-2147]
Rat Hepatocyte CLint [1]: 37 μL/min/10^6 cells | EC50 (L. major amastigote): 5.5 µM | LogD7.4 (LogD7.4): 1.7 | Human Liver Microsome CLint [2]: 12 µL/min/mg | 3T3 TC50 (NIH/3T3 cells): > 100 µM | EC50 [3]: > 50 µM | solubility (Aqueous solubility): 160 µM (≈ 50.8 µg/mL) | HepG2 TC50 (HepG2 cells): 42 µM | Human PPB [4]: 57% | EC50 [5]: 49 µM

Cc1cc(Nc2ccc3c(Nc4cnccn4)ccnc3c2)sn1 [NEU-2148]
Rat Hepatocyte CLint [1]: 9 μL/min/10^6 cells | EC50 (L. major amastigote): 4.7 µM | LogD7.4 (LogD7.4): 3.5 | Human Liver Microsome CLint [2]: 28 µL/min/mg | 3T3 TC50 (NIH/3T3 cells): > 100 µM | EC50 [3]: > 50 µM | solubility (Aqueous solubility): 2 µM (≈ 0.669 µg/mL) | HepG2 TC50 (HepG2 cells): 36 µM | EC50 [5]: 7.6 µM

Cc1cnc(Nc2ccc3c(Nc4cnccn4)ccnc3c2)s1 [NEU-2149]
Rat Hepatocyte CLint [1]: > 300 μL/min/10^6 cells | EC50 (L. major amastigote): 5.3 µM | LogD7.4 (LogD7.4): 3.7 | Human Liver Microsome CLint [2]: 54 µL/min/mg | 3T3 TC50 (NIH/3T3 cells): > 50 µM | EC50 [3]: > 50 µM | solubility (Aqueous solubility): 1 µM (≈ 0.334 µg/mL) | HepG2 TC50 (HepG2 cells): 5 µM | Human PPB [4]: 96% | EC50 [5]: 2.3 µM
